pIC50: −log10 of the molar value. Converted amounts (≈) assume the structure as drawn. Where a SMILES comes first, the peptide text is derived from it.
Columns and labels:
S. aureus (ATCC 6538) = assay type: cell-based, Staphylococcus aureus; conditions: ATCC 6538, 24 h
Experimental: (§1) To assess the antimicrobial activity of t-DPH1 and its designed analogues, MIC and MBC assays were conducted. Seven microorganism strains were used in the assay: Gram-positive bacteria S. aureus (ATCC 6538), E. faecalis (NCTC 12697) and MRSA (NCTC 12493); Gram-negative bacteria E. coli (ATCC 8739), P. aeruginosa (ATCC 9027) and K. pneumoniae (ATCC 43816); yeast, C. albicans (ATCC 10231).
(§2) For MIC assay, the microorganisms were initially incubated in Mueller-Hinton broth (MHB) (for bacteria) or yeast extract peptone dextrose broth (YPD-B) (for yeast) overnight and sub-cultured to achieve their respective logarithmic growth phases (5 × 10^5 CFU/mL). Then, 99 μL of each microorganism and 1 μL of the tested peptide solution were incubated in a 96-well plate. The final on-plate peptide concentrations were from 1 to 512 μM. Except for the peptide group, four other groups were set when conducting this experiment, including a negative control group (PBS), a vehicle control group (1% DMSO), a positive control group (bacteria: 20 μg/mL norfloxacin; yeast: amphotericin B) and a blank control group (MHB or YPD-B with no microorganism culture). Thus, the MIC value represents the lowest concentration of peptides at which no visible growth of the microorganism after 24 h incubation. For the MBC assay, 10 μL of the medium from each clear well was inoculated onto a Mueller–Hinton agar (MHA) (for bacteria) or yeast extract peptone dextrose agar (YPD-A) (for yeast) plate and incubated for 24 h for measurement MBC values.

[1] = system: Enterococcus faecalis (E. faecalis) (NCTC 12697); assay type: cell-based; conditions: NCTC 12697, 24 h
Experimental: as §1, §2

[2] = system: Methicillin-resistant Staphylococcus aureus (MRSA) (NCTC 12493); assay type: cell-based; conditions: NCTC 12493, 24 h
Experimental: as §1, §2

E. coli (ATCC 8739) = assay type: cell-based, Escherichia coli; conditions: ATCC 8739, 24 h
Experimental: as §1, §2

[3] = system: K. pneumoniae (ATCC 43816); assay type: cell-based, Klebsiella pneumoniae; conditions: ATCC 43816, 24 h
Experimental: as §1, §2

[4] = system: P. aeruginosa (ATCC 9027); assay type: cell-based, Pseudomonas aeruginosa; conditions: ATCC 9027, 24 h
Experimental: as §1, §2

C. albicans (ATCC 10231) = assay type: cell-based, Candida albicans; conditions: ATCC 10231, 24 h
Experimental: as §1, §2

[5] = system: HMEC-1 (human microvascular endothelial cell line); assay type: cell-based; conditions: 24 h
Experimental: (§3) The MTT assay was conducted to verify the proliferation inhibitory effect of t-DPH1 and its analogues. Human cancer cell lines (NCI-H838 (ATCC® CRL-5844, human non-small cell lung cancer)), (NCI-H157(ATCC® CRL-5802, human non-small cell lung cancer cell line)), (U251MG (ECACC 09063001, human neuronal glioblastoma cancer cell line)), (PC-3 (ATCC® CRL-1435TM, human prostate carcinoma cancer cell line)) and normal human cell lines (HMEC-1(ATCC®-CRL-3243, human microvascular endothelial cell line)) and (HaCaT (ATCC®-PCS-200-011, human keratinocyte cell)) were purchased from the American Type Culture Collection (ATCC, Manassas, VA, USA) and the European Collection of Cell Cultures (ECACC, Sallisbury, UK) for this assay. For the MTT assay, 8000 cells/per well were seeded in the 96-well plate for 24 h. Subsequently, experiment groups were dosed with fresh serum-free medium containing different concentrations of peptides (100 μM to 10 nM) in 3 replicates. Negative control groups and positive control groups were dosed with the fresh serum-free medium containing equal amounts of PBS, and 0.1% (w/v) Triton X-100, respectively. Then the 96-well plate was incubated at 37 °C with 5% CO2 for 24 h. After, ten microliters of MTT solution (5 mg/mL) (Sigma-Aldrich UK Ltd., Gillingham, UK) were added to each well and incubated in a dark environment for two hours. Then, the solution in each well was removed and 100 μL of DMSO were added and then the plate was shaken for 10 min on a shaking incubator before detecting the OD value by use of a Synergy HT plate reader (BioTek, Minneapolis, MN, USA) at λ = 570 nm.

[6] = system: HaCaT (human keratinocyte cell); assay type: cell-based; conditions: 24 h
Experimental: as §3

[7] = system: NCI-H157 (human non-small cell lung cancer cell line); assay type: cell-based; conditions: 24 h
Experimental: as §3

[8] = system: NCI-H838 (human non-small cell lung cancer); assay type: cell-based; conditions: 24 h
Experimental: as §3

[9] = system: PC-3 (human prostate carcinoma cancer cell line); assay type: cell-based; conditions: 24 h
Experimental: as §3

[10] = system: U251MG (human neuronal glioblastoma cancer cell line); assay type: cell-based; conditions: 24 h
Experimental: as §3

horse red blood cells = assay type: cell-based; conditions: for HC50: red cells of horse
Experimental: The haemolysis assay was performed by mixing 2% (v/v) fresh defibrinated horse blood (TCS Biosciences Ltd., Buckingham, UK) with peptides in different concentrations. Before the test, horse blood was rinsed with PBS three to four times until the supernatant was clear. Next, peptide solutions (from 100 μM to 1 nM) were incubated with the suspension of red blood cells at 37 °C for two hours. The blood cells treated with 1% Triton-X 100 were used as the positive control, and the blood cells treated with PBS were used as the negative control. After incubation, 100 μL of the supernatant from each sample were transferred to a new 96-well plate, and the OD value of each well was measured with a Synergy HT plate reader (BioTek, Minneapolis, MN, USA) with the absorbance set to 570 nm.

[11] = system: PC-3, H838, H157 and U251MG cancer cell lines; assay type: cell-based, human; conditions: 24 h
Experimental: as §3, with “Then the 96-well plate was incubated at 37 °C with 5% CO2 for 24 h. After, ten microliters of MTT solution (5 mg/mL) (Sigma-Aldrich UK Ltd., Gillingham, UK) were added to each well and incubated in a dark environment for two hours.” left out

MIC (S. aureus (ATCC 6538)) [µM]	MIC [1] [µM]	MIC [2] [µM]	MIC (E. coli (ATCC 8739)) [µM]	MIC [3] [µM]	MIC [4] [µM]	MIC (C. albicans (ATCC 10231)) [µM]	IC50 against HMEC-1 [5] [µM]	IC50 against HaCaT [6] [µM]	pIC50 [7]	pIC50 [8]	pIC50 [9]	pIC50 [10]	Compound	MBC (S. aureus (ATCC 6538)) [µM]	MBC [1] [µM]	MBC [2] [µM]	MBC (E. coli (ATCC 8739)) [µM]	MBC [3] [µM]	MBC [4] [µM]	MBC (C. albicans (ATCC 10231)) [µM]	further results
4 (≈ 8.49 µg/mL)	256 (≈ 543 µg/mL)	32 (≈ 67.9 µg/mL)	2 (≈ 4.25 µg/mL)	4 (≈ 8.49 µg/mL)	8 (≈ 17 µg/mL)	64 (≈ 136 µg/mL)	340.2	151.4	4.05	3.73	4.25	3.23	CC[C@H](C)[C@H](NC(=O)[C@H](CCCCN)NC(=O)[C@H](CCCCN)NC(=O)[C@H](Cc1c[nH]c2ccccc12)NC(=O)[C@H](CC(C)C)NC(=O)CN)C(=O)N[C@@H](CCCCN)C(=O)N[C@@H](CC(N)=O)C(=O)N[C@H](C(=O)N[C@@H](C)C(=O)N[C@@H](CCCCN)C(=O)N[C@@H](C)C(=O)N[C@@H](C)C(=O)NCC(=O)N[C@@H](CCCCN)C(=O)N[C@@H](C)C(=O)N[C@@H](C)C(=O)N[C@@H](CCCCN)C(=O)NCC(=O)N[C@@H](C)C(=O)N[C@@H](CC(C)C)C(N)=O)C(C)C [t-DPH1-6K] (H-GLWKKIKNVAKAAGKAAKGAL-NH2)	8 (≈ 17 µg/mL)	512 (≈ 1090 µg/mL)	64 (≈ 136 µg/mL)	4 (≈ 8.49 µg/mL)	8 (≈ 17 µg/mL)	16 (≈ 34 µg/mL)	128 (≈ 272 µg/mL)	HC50 (horse red blood cells): 834.6 µM
2 (≈ 4.1 µg/mL)	32 (≈ 65.6 µg/mL)	2 (≈ 4.1 µg/mL)	1 (≈ 2.05 µg/mL)	2 (≈ 4.1 µg/mL)	8 (≈ 16.4 µg/mL)	32 (≈ 65.6 µg/mL)	46.02	63.37	5.21	5.00	4.72	4.49	CC[C@H](C)[C@H](NC(=O)[C@H](CCCCN)NC(=O)[C@H](CCCCN)NC(=O)[C@H](Cc1c[nH]c2ccccc12)NC(=O)[C@H](CC(C)C)NC(=O)CN)C(=O)N[C@@H](CCCCN)C(=O)N[C@@H](CC(N)=O)C(=O)N[C@H](C(=O)N[C@@H](C)C(=O)N[C@@H](C)C(=O)N[C@@H](C)C(=O)N[C@@H](C)C(=O)NCC(=O)N[C@@H](CCCCN)C(=O)N[C@@H](C)C(=O)N[C@@H](C)C(=O)N[C@@H](CC(C)C)C(=O)NCC(=O)N[C@@H](C)C(=O)N[C@@H](CC(C)C)C(N)=O)C(C)C [t-DPH1-K4] (H-GLWKKIKNVAAAAGKAALGAL-NH2)	4 (≈ 8.2 µg/mL)	32 (≈ 65.6 µg/mL)	4 (≈ 8.2 µg/mL)	2 (≈ 4.1 µg/mL)	4 (≈ 8.2 µg/mL)	16 (≈ 32.8 µg/mL)	64 (≈ 131 µg/mL)	HC50 (horse red blood cells): 444.8 µM
8 (≈ 16.1 µg/mL)	128 (≈ 257 µg/mL)	16 (≈ 32.2 µg/mL)	2 (≈ 4.02 µg/mL)	8 (≈ 16.1 µg/mL)	16 (≈ 32.2 µg/mL)	64 (≈ 129 µg/mL)	29.85	175.6	4.99	4.63	4.83	4.47	CC[C@H](C)[C@H](NC(=O)[C@H](CCCCN)NC(=O)[C@H](CO)NC(=O)[C@H](Cc1c[nH]c2ccccc12)NC(=O)[C@H](CC(C)C)NC(=O)CN)C(=O)N[C@@H](CCCCN)C(=O)N[C@@H](CC(N)=O)C(=O)N[C@H](C(=O)N[C@@H](C)C(=O)N[C@@H](C)C(=O)N[C@@H](C)C(=O)N[C@@H](C)C(=O)NCC(=O)N[C@@H](CCCCN)C(=O)N[C@@H](C)C(=O)N[C@@H](C)C(=O)N[C@@H](CC(C)C)C(=O)NCC(=O)N[C@@H](C)C(=O)N[C@@H](CC(C)C)C(N)=O)C(C)C [t-DPH1] (H-GLWSKIKNVAAAAGKAALGAL-NH2)	16 (≈ 32.2 µg/mL)	256 (≈ 514 µg/mL)	32 (≈ 64.3 µg/mL)	4 (≈ 8.04 µg/mL)	16 (≈ 32.2 µg/mL)	32 (≈ 64.3 µg/mL)	128 (≈ 257 µg/mL)	haemolysis (horse red blood cells; 100 µM): over 50%; HC50 (horse red blood cells): 106.4 µM; pIC50 [11]: 4.47 to 4.99

Source: article PMC8698721, “Exploration of the Structure–Function Relationships of a Novel Frog Skin Secretion-Derived Bioactive Peptide, t-DPH1, through Use of Rational Design, Cationicity Enhancement and In Vitro Studies” (Antibiotics, 2021)
